Results as given in the OPERA property sets (Mansouri et al. 2018).

| Compound | logP |
| --- | --- |
| COC(=O)C(C#N)=NNc1ccc(Cl)cc1C(F)(F)F | 4.66 |
| O=[N+]([O-])c1cnc(N=C2OCCN2CCO)s1 | 0.43 |
| CN1C(=Nc2ncc([N+](=O)[O-])s2)NCC1(C)C | 2.35 |
| CNC(=O)Oc1cccc(I)c1 | 2.52 |
| CN(C)c1nc2ccccc2o1 | 2.1 |
| CC(=O)Nc1cccc(N=NN(C)C)c1 | 1.61 |
| OCC1OC(Oc2ccccc2I)C(O)C(O)C1O (stereo unspecified) | 0.27 |
| COc1c(O)cc(Cc2cnc(N)nc2N)cc1O | -0.04 |
| CC(C)c1nnc(N2CCOCC2)n(N)c1=O | 0.49 |
| COc1ccc(CC(C)N)c(OC)c1OC (stereo unspecified) | 1.51 |
| N#Cc1ccc([N+](=O)[O-])n1CCO | 0.6 |
| COC(=O)C(C#N)=NNc1c(Cl)cc(C(F)(F)F)cc1Cl | 4.36 |
| N#Cc1ccc2c(c1)C(c1ccccc1)=NCC(=O)N2 | 1.82 |
| COc1cc(C)n(-c2cc(C)nc(C)n2)n1 | 2.6 |
| CCC(=O)N(C)c1ccc(S(=O)(=O)N(C)C)cc1 | 0.71 |
| CCCC1(CC)C(=O)NC(=O)N(C)C1=O (stereo unspecified) | 1.65 |
| CNC(=O)Oc1cc(C)c(Cl)cc1C | 2.95 |
| Cc1ccccc1NC(=O)C1CNCCN1 (stereo unspecified) | 0.26 |
| CNC(=O)Oc1cccc(C(F)(F)F)c1 | 2.37 |
| CC/N=C(N)/N=C(\N)Nc1ccc(Cl)cc1 | 2.14 |
| CCN(CC)CC(=O)NC1c2ccccc2-c2ccccc21 | 3.64 |

| Compound | logP |
| --- | --- |
| O=C1CN=C(c2ccc(C(F)(F)F)cc2)c2ccccc2N1 | 3.34 |
| O=c1c2ccccc2ncn1O | -0.45 |
| S=C=NCc1ccc2ccccc2c1 | 4.42 |
| COc1cc(-n2c(C)cc(=O)n2C)nc(C)n1 | 0.38 |
| CCCNc1c([N+](=O)[O-])cc(C(F)(F)F)cc1[N+](=O)[O-] | 3.65 |
| CCOC(=O)C(C#N)=NNc1cc(C(F)(F)F)ccc1Cl | 4.45 |
| O=C(O)COc1ccc(Cl)c(C(=O)O)c1 | 1.07 |
| COc1c(N(C)C)cc(Cc2cnc(N)nc2N)cc1N(C)C(C)=O | 1.01 |
| Cc1nonc1-c1ccccn1 | 2.09 |
| CCCCCCN(SN(C)C(=O)ON=C(C)SC)C(=O)N(C)C | 3.3 |
| COc1cc(Cc2cnc(N)nc2N)cc(OC)c1C | 2.14 |
| CCOC(=O)C(=Cc1ccc2c(c1)OCO2)C(C)=O | 2.35 |
| CCCCCCCCCC[n+]1ccccc1.[Br-] | -0.72 |
| CC1COCCN1N=O (stereo unspecified) | -0.03 |
| O=NN(CCF)C(=O)NC1CCSCC1 | 1.43 |
| Nc1ccc(OC2OC(CO)C(O)C(O)C2O)cc1 (stereo unspecified) | -2.67 |
| CCCOn1c(=O)[nH]c(C)c(Br)c1=O | 0.76 |
| CCN(CC)C(=O)NN | -0.62 |
| Nc1ccc(Cc2cnc(N)nc2N)cc1 | 0.22 |
| O=C(O)CCSc1c[nH]c2ccccc12 | 2.15 |
| O=C(O)c1cccc(CSc2ccccc2)c1O | 4.28 |

| Compound | logP |
| --- | --- |
| CCOC(=O)CCCCCn1nnc2ccccc21 | 2.68 |
| Nc1nc(N)nc(-c2cc(Br)ccc2Cl)n1 | 2.04 |
| CSc1cccc(N=NN(C)C)c1 | 2.98 |
| O=c1[nH]nc(CSc2ccccc2)[nH]1 | 1.46 |
| CCOC(=O)C(=Cc1ccc(OC)cc1)C(=O)OCC | 3.28 |
| CN(C)/N=N/c1ccccc1C(=O)NC#N | 0.8 |
| COc1ccc2c(c1)C(c1ccccc1)=NCC(=O)N2 | 2.24 |
| O=[N+]([O-])C=Cc1cccc(Cl)c1 | 2.57 |
| CCN(C)c1nc(N(C)CC)nc(N(C)CC)n1 | 3.9 |
| CSC1=NCCN1c1ncc([N+](=O)[O-])s1 | 1.78 |
| CCCCCC[n+]1ccccc1C.[I-] | -1.71 |
| O=NN(CCCl)C(=O)NC1CCC(O)CC1 (stereo unspecified) | 1.11 |
| Cc1ccc(NC2=NCCN2)c(C)c1 | 1.79 |
| COc1ccc(N(C)C(C)=O)cc1 | 0.72 |
| CCC(=O)Cn1ccnc1C=Cc1occc1[N+](=O)[O-] | 1.27 |
| NNC(=O)NC1CCCCC1 | 0.15 |
| CCCCC(C)n1nnc2ccccc21 (stereo unspecified) | 3.44 |
| CCCCCC[n+]1cc(C)cc(C)c1.[I-] | -1.19 |
| COCN1C(=O)CN=C(c2ccccc2F)c2cc(N)ccc21 | 1.31 |
